Like-named read-outs stand apart in the source and are kept apart here.
Tests used:
homomeric α1 GlyR = biological target: T1, homomeric α1 GlyR (Homo sapiens, UniProt P23415); test: Whole-cell patch-clamp of glycine-induced currents, α1 GlyR expressed in CHO cells; assay type: cell-based; details: for inhibition at 30 µM / inhibition at 100 µM / inhibition at 300 µM: CHO, long protocol, read-out: inhibition of α1GlyR-mediated currents; for inhibition at 30 µM: NFA 30 μM; for inhibition at 100 µM: NFA 100 μM; for inhibition at 300 µM: NFA 300 μM
T1 construct: expressed in transfected cells; host or cells: CHO cells
T1 sequence (P23415 29-449 isoform P23415-2 limits assumed): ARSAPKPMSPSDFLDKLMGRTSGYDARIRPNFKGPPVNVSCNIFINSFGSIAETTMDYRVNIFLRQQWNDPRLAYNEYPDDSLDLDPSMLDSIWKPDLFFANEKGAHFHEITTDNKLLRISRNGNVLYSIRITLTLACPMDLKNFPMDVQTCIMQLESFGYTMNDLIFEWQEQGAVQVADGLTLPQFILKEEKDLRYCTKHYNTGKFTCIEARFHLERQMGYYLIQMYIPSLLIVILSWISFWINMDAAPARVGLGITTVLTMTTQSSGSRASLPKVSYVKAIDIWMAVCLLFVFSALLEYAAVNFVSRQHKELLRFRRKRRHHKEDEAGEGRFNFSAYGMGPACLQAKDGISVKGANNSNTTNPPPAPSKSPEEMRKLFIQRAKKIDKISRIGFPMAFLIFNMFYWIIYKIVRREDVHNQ
Method: (§1) The experiments were carried out on cultured Chinese hamster ovary (CHO) cells obtained from the American Type Tissue Culture Collection (ATCC, Molsheim, France) that were maintained in culture conditions as previously described (Mukhtarov et al., [2013]; Maleeva et al., [2015]).
(§2) One day before transfection, cells were plated on the cover slips (12 mm in diameter) and placed inside 35-mm cell culture dishes with 2 ml of medium. Transfection was performed using the Lipofectamine 3000 protocol (Life Technology, USA). To facilitate identification of transfected cells a green fluorescent protein (GFP) was added to the transfection mixture. For expression of functional heteromeric receptors, cells were simultaneously transfected with cDNAs of α and β subunits in the ratio 1:10. Three hours after the initial exposure of cells to the cDNAs the culture medium was replaced with that containing strychnine (1 μM), which prevents spontaneous activation of GlyRs. Electrophysiological recordings were performed in the fluorescent cells 24–72 h after transfection.
(§3) Whole-cell and outside-out recordings were performed at room temperature (20–25°C) using an EPC-9 amplifier (HEKA Elektronik, Germany). Cells were continuously superfused with external solution containing (mM): NaCl 140, CaCl2 2, KCl 2.8, MgCl2 4, HEPES 20, glucose 10; pH 7.4; 320–330 mOsm. Intracellular solution used for filling recording patch pipettes contained (mM): CsCl 140, CaCl2 6, MgCl2 2, MgATP 2, NaGTP 0.4, HEPES/CsOH 10, BAPTA (tetrapotassium salt) 2; pH 7.3; 290 mOsm. Two different protocols of solutions application were used in this study. […] A “ramp protocol” implies the gradual change of Vhold alternately from −80 to +80 mV and from +80 to −80 mV during 1 s, Vhold was fixed at −80 or +80 mV at the beginning and at the end of the ramp for 500 ms (Figure 2B).
(§4) Recording pipettes were pulled from borosilicate glass capillaries (Harvard Apparatus Ltd, USA) and had resistances of 5–10 MOhm. For the rapid replacement of the solutions, the fast application system was used. Three parallel rectangular tubes (100 × 100 μm) were positioned 40–50 μm above the recorded cell. The movement of the tubes was controlled by a computer-driven fast exchange system (SF 77A Perfusion Fast-Step, Warner, USA) allowing a 10–90% solution exchange in 3–5 ms, as measured by open electrode controls (1/10 external solution/water). Cells with low input resistance (<150 MOhm) and a rapid run-down (>30% with repetitive application) were excluded from analysis.
(§5) Electrophysiological recordings were performed using PatchMaster (HEKA Electronic, Germany) software.
(§6) The fractional electrical distance from the external side of the membrane (δ) at which bound NFA blocked the current was calculated using the Woodhull equation: IC50(V)=IC50(0) exp (−δFV/RT), where IC50(V) is IC50 at the given membrane potential, IC50(0) – at 0 mV, V – membrane potential and F, R, T have their usual meanings. δ was determined from a plot of IC50 values against membrane potential.

α2 GlyR = biological target: T2, α2 GlyR (Homo sapiens, UniProt P23416); test: Whole-cell patch-clamp of glycine-induced currents, α2 GlyR expressed in CHO cells; assay type: cell-based; details: for glycine-evoked current, % from the control: NFA 10 μM
T2 construct: expressed in transfected cells; host or cells: CHO cells
T2 sequence (P23416 28-452 isoform P23416-2 limits assumed): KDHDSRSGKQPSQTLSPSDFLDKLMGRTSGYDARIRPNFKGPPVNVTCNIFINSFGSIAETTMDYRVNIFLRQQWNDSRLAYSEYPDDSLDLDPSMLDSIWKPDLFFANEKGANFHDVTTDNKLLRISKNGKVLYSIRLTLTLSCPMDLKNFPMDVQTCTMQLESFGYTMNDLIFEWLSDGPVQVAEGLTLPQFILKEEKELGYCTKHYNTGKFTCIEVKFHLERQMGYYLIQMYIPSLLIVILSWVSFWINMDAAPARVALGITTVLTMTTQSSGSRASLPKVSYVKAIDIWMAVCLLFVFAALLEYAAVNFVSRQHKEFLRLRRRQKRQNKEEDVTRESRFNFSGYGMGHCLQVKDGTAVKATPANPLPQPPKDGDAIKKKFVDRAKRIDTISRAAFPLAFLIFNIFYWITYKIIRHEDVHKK
Method: as §1, §2, §3, §4, §5, §6

[1] = +30 mV, glycine 30 μM, representative, read-out: NFA IC50 (representative IC50 curve)
[2] = +30 mV, glycine 100 μM, representative, read-out: NFA IC50 (representative IC50 curve)
[3] = +80 mV, glycine 30 μM, ramp protocol, mean ± SEM, read-out: IC50 of NFA
[4] = +80 mV, glycine 30 μM, representative, read-out: NFA IC50 (representative IC50 curve)
[5] = +80 mV, glycine 100 μM, ramp protocol, mean ± SEM, read-out: IC50 of NFA
[6] = +80 mV, glycine 100 μM, representative, read-out: NFA IC50 (representative IC50 curve)
[7] = membrane potential 30 mV, glycine 30 μM
[8] = membrane potential 50 mV, glycine 30 μM
[9] = membrane potential 80 mV, glycine 30 μM
[10] = membrane potential −50 mV, glycine 30 μM
[11] = membrane potential −70 mV, glycine 30 μM
[12] = membrane potential −80 mV, glycine 30 μM
[13] = overall statement in discussion
[14] = −30 mV, glycine 30 μM, representative, read-out: NFA IC50 (representative IC50 curve)
[15] = −30 mV, glycine 100 μM, representative, read-out: NFA IC50 (representative IC50 curve)
[16] = −80 mV, glycine 30 μM, ramp protocol, mean ± SEM, read-out: IC50 of NFA
[17] = −80 mV, glycine 30 μM, representative, read-out: NFA IC50 (representative IC50 curve)
[18] = −80 mV, glycine 100 μM, representative, read-out: NFA IC50 (representative IC50 curve)

For `O=C(O)c1cccnc1Nc1cccc(C(F)(F)F)c1` [NFA, Niflumic acid], the IC50 (homomeric α1 GlyR; [1]) was 218 µM, the IC50 (homomeric α1 GlyR; [2]) was 107 µM and the IC50 (homomeric α1 GlyR; [3]) was 197 ± 18 µM. For the same molecule, the IC50 (homomeric α1 GlyR; [4]) was 178 µM, the IC50 (homomeric α1 GlyR; [5]) was 90 ± 8 µM and the IC50 (homomeric α1 GlyR; [6]) was 94 µM. It also gave an inhibition at 30 µM (homomeric α1 GlyR; Vhold +30 mV, glycine 30 μM) of 16 ± 7%, an inhibition at 30 µM (homomeric α1 GlyR; Vhold −30 mV, glycine 30 μM) of 3 ± 4% and an inhibition at 100 µM (homomeric α1 GlyR; Vhold +30 mV, glycine 30 μM) of 43 ± 11%. It also gave an inhibition at 100 µM (homomeric α1 GlyR; Vhold −30 mV, glycine 30 μM) of 16 ± 6%, an inhibition at 300 µM (homomeric α1 GlyR; Vhold +30 mV, glycine 30 μM) of 75 ± 4% and an inhibition at 300 µM (homomeric α1 GlyR; Vhold −30 mV, glycine 30 μM) of 48 ± 9%. For the same molecule, the “Hill coefficient (nH) of NFA interaction” value (homomeric α1 GlyR; glycine 30 μM) was 1.5 ± 0.11, the “decrease of IC50 at +80 mV versus −80 mV” value (homomeric α1 GlyR; glycine 100 μM) was “about 3 fold” and the “Hill coefficient (nH) of NFA interaction” value (homomeric α1 GlyR; [7]) was 1.87 ± 0.02. For the same molecule, the “Hill coefficient (nH) of NFA interaction” value (homomeric α1 GlyR; [8]) was 1.55 ± 0.08, the “Hill coefficient (nH) of NFA interaction” value (homomeric α1 GlyR; [9]) was 1.28 ± 0.07 and the “Hill coefficient (nH) of NFA interaction” value (homomeric α1 GlyR; [10]) was 1.7 ± 0.08. The “Hill coefficient (nH) of NFA interaction” value (homomeric α1 GlyR; [11]) was 1.65 ± 0.08, the “Hill coefficient (nH) of NFA interaction” value (homomeric α1 GlyR; [12]) was 1.56 ± 0.07 and the “Hill coefficient (nH) of NFA inhibitory action” value (homomeric α1 GlyR; [13]) was roughly 1.5. The IC50 (homomeric α1 GlyR; [14]) was 256 µM, the IC50 (homomeric α1 GlyR; [15]) was 171 µM and the IC50 (homomeric α1 GlyR; [16]) was 315 ± 30 µM. For the same molecule, the IC50 (homomeric α1 GlyR; [17]) was 272 µM, the IC50 (homomeric α1 GlyR; −80 mV, glycine 100 μM, ramp protocol, mean ± SEM, read-out: IC50 of NFA) was 270 ± 26 µM and the IC50 (homomeric α1 GlyR; [18]) was 209 µM. For the same molecule, the IC50 (α2 GlyR; [1]) was 17 µM, the IC50 (α2 GlyR; [2]) was 12 µM and the IC50 (α2 GlyR; [3]) was 9 ± 2 µM. It also gave an IC50 (α2 GlyR; [4]) of 12 µM, an IC50 (α2 GlyR; [5]) of 9 ± 2 µM and an IC50 (α2 GlyR; [6]) of 7 µM. The inhibition at 10 µM (α2 GlyR; CHO) was roughly 50%, the “glycine-evoked current, % from the control” value (α2 GlyR; MP +80 mV) was 43 ± 5% and the “glycine-evoked current, % from the control” value (α2 GlyR; MP −80 mV) was 89 ± 4%. For the same molecule, the “Hill coefficient (nH) of NFA interaction” value (α2 GlyR; [7]) was 1.1 ± 0.14, the “Hill coefficient (nH) of NFA interaction” value (α2 GlyR; [8]) was 1 ± 0.14 and the “Hill coefficient (nH) of NFA interaction” value (α2 GlyR; membrane potential 70 mV, glycine 30 μM) was 1 ± 0.13. The “Hill coefficient (nH) of NFA interaction” value (α2 GlyR; [9]) was 0.97 ± 0.09, the “Hill coefficient (nH) of NFA interaction” value (α2 GlyR; [10]) was 1.14 ± 0.12 and the “Hill coefficient (nH) of NFA interaction” value (α2 GlyR; [11]) was 1.04 ± 0.08. For the same molecule, the “Hill coefficient (nH) of NFA interaction” value (α2 GlyR; [12]) was 1.05 ± 0.06, the “Hill coefficient (nH) of NFA inhibitory action” value (α2 GlyR; [13]) was roughly 1 and the IC50 (α2 GlyR; read-out: IC50 of NFA) was 133 ± 20 µM. For the same molecule, the IC50 (α2 GlyR; [14]) was 75 µM, the IC50 (α2 GlyR; [15]) was 39 µM and the IC50 (α2 GlyR; [16]) was 166 ± 28 µM. It also gave an IC50 (α2 GlyR; [17]) of 155 µM and an IC50 (α2 GlyR; [18]) of 100 µM.

From PMC5432571 (Frontiers in Molecular Neuroscience, 2017)
